Data: the NIST ThermoML archive (doi:10.1016/j.jct.2011.12.025)

Experiment: xn = mol fraction of the nth substance listed
Conditions: 296.15 K, 101 kPa, Liquid, WTW LF538 Conductivity Meter

CCCCCCCCCCn1cc[n+](C)c1.F[B-](F)(F)F [1-decyl-3-methylimidazolium tetrafluoroborate] + O
Conditions | electrical conductivity [S/m]
x1 = 2.5e-05 | 0.018
x1 = 3.8e-05 | 0.026
x1 = 5.1e-05 | 0.034
x1 = 6.4e-05 | 0.042
x1 = 7.6e-05 | 0.049
x1 = 8.9e-05 | 0.056
x1 = 0.000102 | 0.063
x1 = 0.000115 | 0.07
x1 = 0.000128 | 0.076
x1 = 0.000139 | 0.082
x1 = 0.000153 | 0.089
x1 = 0.000166 | 0.096
x1 = 0.000179 | 0.101
x1 = 0.000204 | 0.113
x1 = 0.00023 | 0.125
x1 = 0.000256 | 0.137

CCCCCCn1cc[n+](C)c1.F[B-](F)(F)F [1-hexyl-3-methylimidazolium tetrafluoroborate] + O
Conditions | electrical conductivity [S/m]
x1 = 0.000466 | 0.231
x1 = 0.000711 | 0.329
x1 = 0.000949 | 0.419
x1 = 0.001193 | 0.505
x1 = 0.001435 | 0.584
x1 = 0.001677 | 0.663
x1 = 0.001925 | 0.74
x1 = 0.002172 | 0.812
x1 = 0.002421 | 0.875
x1 = 0.002671 | 0.949
x1 = 0.002925 | 1.014
x1 = 0.003177 | 1.07
x1 = 0.003433 | 1.126
x1 = 0.003948 | 1.25
x1 = 0.004469 | 1.36
x1 = 0.005 | 1.447

CCCCCCCC[n+]1ccn(C)c1.F[B-](F)(F)F [1-methyl-3-octylimidazolium tetrafluoroborate] + O
Conditions | electrical conductivity [S/m]
x1 = 0.000109 | 0.067
x1 = 0.000164 | 0.095
x1 = 0.000219 | 0.123
x1 = 0.000274 | 0.149
x1 = 0.000326 | 0.172
x1 = 0.000384 | 0.196
x1 = 0.000439 | 0.22
x1 = 0.000494 | 0.24
x1 = 0.000549 | 0.262
x1 = 0.000605 | 0.284
x1 = 0.00066 | 0.305
x1 = 0.000715 | 0.326
x1 = 0.000772 | 0.346
x1 = 0.000883 | 0.386
x1 = 0.000995 | 0.424
x1 = 0.001107 | 0.463
